Test results published in patent publication US9562035B2, “Benzamide derivative useful as FASN inhibitors for the treatment of cancer” (Janssen Pharmaceutica NV, priority 2013, dated 2017).

Tests used:
[1] = biological target: T1, hFASN enzyme (full length) (Homo sapiens, UniProt P49327); test: Fatty Acid Synthase (FASN) Inhibition Scintillation Proximity Assay; type: biochemical; conditions: read-out: FASN % Effect @1E−05M
T1 construct: 10 μL hFASN enzyme (full length, 300 ng, purified in house); made in house
In short: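 Purified full-length human FASN (300 ng) incubated 60 min at room temperature with NADPH, [3H]-acetyl-CoA and malonyl-CoA in 100 mM KH2PO4 pH 7.5, 1 mM DTT; compound at 30 μM to 0.01 μM. [3H]-palmitate captured by SPA imaging beads; IC50 from 4-parameter fit, reported as pIC50.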

[2] = system: A2780 ovarian cells; test: A2780 Ovarian Cell Proliferation Assay in Lipid Reduced Medium, without Palmitate; type: cell-based; conditions: Homo sapiens, A2780; lipid reduced medium, without palmitate, 96 h, MTT; read-out: Proliferation A2780 w/o Palmitate pIC50 (converted)
In short: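 A2780 cells were seeded in 10% FCS medium and switched next day to 10% lipid-reduced serum without palmitate. Compounds at 0.01–30 μM were added with 0.2% DMSO, 0.2% fatty-acid-free BSA and 0.25% ethanol final. After 96 h, MTT absorbance at 544 nm was normalized to plate controls, and IC50/pIC50 came from a 4-parameter logistic fit.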

[3] = system: A2780 ovarian cells; test: A2780 Ovarian Cell Proliferation Assay in Lipid Reduced Medium, with Palmitate (control); type: cell-based; conditions: Homo sapiens, A2780; lipid reduced medium, 25 μM palmitate, 96 h, MTT; read-out: Proliferation A2780 with Palmitate pIC50 (converted)
In short: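 A2780 cells were seeded in RPMI1640 with 10% FCS, then switched next day to medium with 10% lipid-reduced serum. Compound was added with final 25 μM palmitate, 0.2% fatty-acid-free BSA and 0.2% DMSO, and incubated 96 h at 37 °C. Read-out was MTT absorbance at 544 nm; pIC50 = −log(IC50) from curve fit.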

[4] = system: LNCaP_Vancouver prostate cells; test: In Vitro LNCaP Vancouver Prostate Cell Proliferation Assay in Lipid Reduced Medium; type: cell-based; conditions: lipid reduced serum, 96 h, read-out: Vancouver Cells pIC50 (converted)
Experimental: LNCaP_Vancouver prostate cells were obtained from the Vancouver Prostate Cancer Centre. Cells were maintained in RPMI-1640, 10% Fetal Calf Serum (FCS, Hyclone), 2 mM glutamine and 50 μg/ml Gentamicin.
For the proliferation experiment 1500 LNCaP_Vancouver cells per well were seeded in a 384-well black with clear bottom plate (costar 3712BC) in 40 μl RPMI-1640, 10% Lipid reduced serum (LRS, Hyclone), 50 μg/ml Gentamicin and 2 mM Glutamine and incubated at 37° C., 5% CO2. The next day 10 μl of test compound/DMSO diluted in medium was added (3E-5M, 1E-5M, 3E-6M, 1E-6M, 3E-7M, 1E-7M, 3E-8M, 1E-8M final concentration). Compounds were tested in duplicate. After 96 h incubation at 37° C., 5% CO2 25 μl ATP-glow mix was added. The plate was incubated for 30 min at 37° C. and luminescence was measured with the Envision.
(§1) pIC50 values were calculated as follows. Raw data generated by the instruments were normalized to % Controlmin values, which were calculated as: % Controlmin=100*(x−mLC)/(mHC−mLC),
(§2) where mLC and mHC are the means of the low control wells and high control wells on the plate, after manual exclusion of outliers. The relation between the % Controlmin values and concentration was fitted to a 4-parameter logistic curve using a non-linear least squares regression method to determine the pIC50 value. Outlying data points were excluded manually to get a correct fit. The pIC50 corresponds to −log 10(IC50), if the IC50 is expressed in molar units (http://www.ncbi.nlm.nih.gov/books/NBK91994). The IC50 parameter was always determined by non-linear regression, but one or more of the other parameters may have been held fixed on a relevant input value, such as 0 for the bottom values.
(§3) For dose response curves with FASN inhibitors in LNCaP_Vancouver or PC-3M-Luc_C6 cells the curves bottom out around 30 to 40% of the control value. A standard fit PL2, forcing the lower bound to this level was used.
(§4) Representative compounds of the present invention were tested according to the procedure as described in Biological Example 4a and 4b above, with results as listed in Table BIO-4, below.

[5] = system: PC-3M-Luc-C6 prostate cells; test: In Vitro PC-3M-Luc-C6 Prostate Cell Proliferation Assay in Lipid Reduced Medium; type: cell-based; conditions: read-out: PC-3M-Luc-C6 Cells pIC50 (μM) (converted), lipid reduced serum, 96 h
Experimental: PC-3M-Luc-C6 prostate cells were obtained from Xenogen Corporation. Cells were maintained in MEM supplemented with 10% Fetal Calf Serum (FCS, Hyclone), 2 mM glutamine, 1 mM sodium pyruvate, 1% BME vitamins (available from for example, Sigma Aldrich), 0.1 mM non Essential Amino Acid and 50 μg/ml Gentamicin. The cells were passaged twice a week.
1000 PC-3M-Luc-C6 prostate cells (Xenogen) were seeded in a 384-well black with clear bottom plate (costar 3712BC) in 40 μl MEM, 10% LRS (Hyclo ne), 50 μg/ml Gentamicin, 2 mM Glutamine, 1 mM Sodium pyruvaat, 1% BME vitamins and 0.1 mM non Essential Amino Acid and incubated at 37° C., 5% CO2. The next day 10 μl test compound/DMSO diluted in medium was added (3E-5M, 1E-5M, 3E-6M, 1E-6M, 3E-7M, 1E-7M, 3E-8M, 1E-8M final concentration). Compounds were tested in duplicate. After 96 h incubation at 37° C., 5% CO2 25 μl ATP-glow mix was added. The plate was incubated for 30 min at 37° C. and luminescence was measured with the Envision.
as §1, §2, §3, §4

T1 sequence (P49327 whole entry): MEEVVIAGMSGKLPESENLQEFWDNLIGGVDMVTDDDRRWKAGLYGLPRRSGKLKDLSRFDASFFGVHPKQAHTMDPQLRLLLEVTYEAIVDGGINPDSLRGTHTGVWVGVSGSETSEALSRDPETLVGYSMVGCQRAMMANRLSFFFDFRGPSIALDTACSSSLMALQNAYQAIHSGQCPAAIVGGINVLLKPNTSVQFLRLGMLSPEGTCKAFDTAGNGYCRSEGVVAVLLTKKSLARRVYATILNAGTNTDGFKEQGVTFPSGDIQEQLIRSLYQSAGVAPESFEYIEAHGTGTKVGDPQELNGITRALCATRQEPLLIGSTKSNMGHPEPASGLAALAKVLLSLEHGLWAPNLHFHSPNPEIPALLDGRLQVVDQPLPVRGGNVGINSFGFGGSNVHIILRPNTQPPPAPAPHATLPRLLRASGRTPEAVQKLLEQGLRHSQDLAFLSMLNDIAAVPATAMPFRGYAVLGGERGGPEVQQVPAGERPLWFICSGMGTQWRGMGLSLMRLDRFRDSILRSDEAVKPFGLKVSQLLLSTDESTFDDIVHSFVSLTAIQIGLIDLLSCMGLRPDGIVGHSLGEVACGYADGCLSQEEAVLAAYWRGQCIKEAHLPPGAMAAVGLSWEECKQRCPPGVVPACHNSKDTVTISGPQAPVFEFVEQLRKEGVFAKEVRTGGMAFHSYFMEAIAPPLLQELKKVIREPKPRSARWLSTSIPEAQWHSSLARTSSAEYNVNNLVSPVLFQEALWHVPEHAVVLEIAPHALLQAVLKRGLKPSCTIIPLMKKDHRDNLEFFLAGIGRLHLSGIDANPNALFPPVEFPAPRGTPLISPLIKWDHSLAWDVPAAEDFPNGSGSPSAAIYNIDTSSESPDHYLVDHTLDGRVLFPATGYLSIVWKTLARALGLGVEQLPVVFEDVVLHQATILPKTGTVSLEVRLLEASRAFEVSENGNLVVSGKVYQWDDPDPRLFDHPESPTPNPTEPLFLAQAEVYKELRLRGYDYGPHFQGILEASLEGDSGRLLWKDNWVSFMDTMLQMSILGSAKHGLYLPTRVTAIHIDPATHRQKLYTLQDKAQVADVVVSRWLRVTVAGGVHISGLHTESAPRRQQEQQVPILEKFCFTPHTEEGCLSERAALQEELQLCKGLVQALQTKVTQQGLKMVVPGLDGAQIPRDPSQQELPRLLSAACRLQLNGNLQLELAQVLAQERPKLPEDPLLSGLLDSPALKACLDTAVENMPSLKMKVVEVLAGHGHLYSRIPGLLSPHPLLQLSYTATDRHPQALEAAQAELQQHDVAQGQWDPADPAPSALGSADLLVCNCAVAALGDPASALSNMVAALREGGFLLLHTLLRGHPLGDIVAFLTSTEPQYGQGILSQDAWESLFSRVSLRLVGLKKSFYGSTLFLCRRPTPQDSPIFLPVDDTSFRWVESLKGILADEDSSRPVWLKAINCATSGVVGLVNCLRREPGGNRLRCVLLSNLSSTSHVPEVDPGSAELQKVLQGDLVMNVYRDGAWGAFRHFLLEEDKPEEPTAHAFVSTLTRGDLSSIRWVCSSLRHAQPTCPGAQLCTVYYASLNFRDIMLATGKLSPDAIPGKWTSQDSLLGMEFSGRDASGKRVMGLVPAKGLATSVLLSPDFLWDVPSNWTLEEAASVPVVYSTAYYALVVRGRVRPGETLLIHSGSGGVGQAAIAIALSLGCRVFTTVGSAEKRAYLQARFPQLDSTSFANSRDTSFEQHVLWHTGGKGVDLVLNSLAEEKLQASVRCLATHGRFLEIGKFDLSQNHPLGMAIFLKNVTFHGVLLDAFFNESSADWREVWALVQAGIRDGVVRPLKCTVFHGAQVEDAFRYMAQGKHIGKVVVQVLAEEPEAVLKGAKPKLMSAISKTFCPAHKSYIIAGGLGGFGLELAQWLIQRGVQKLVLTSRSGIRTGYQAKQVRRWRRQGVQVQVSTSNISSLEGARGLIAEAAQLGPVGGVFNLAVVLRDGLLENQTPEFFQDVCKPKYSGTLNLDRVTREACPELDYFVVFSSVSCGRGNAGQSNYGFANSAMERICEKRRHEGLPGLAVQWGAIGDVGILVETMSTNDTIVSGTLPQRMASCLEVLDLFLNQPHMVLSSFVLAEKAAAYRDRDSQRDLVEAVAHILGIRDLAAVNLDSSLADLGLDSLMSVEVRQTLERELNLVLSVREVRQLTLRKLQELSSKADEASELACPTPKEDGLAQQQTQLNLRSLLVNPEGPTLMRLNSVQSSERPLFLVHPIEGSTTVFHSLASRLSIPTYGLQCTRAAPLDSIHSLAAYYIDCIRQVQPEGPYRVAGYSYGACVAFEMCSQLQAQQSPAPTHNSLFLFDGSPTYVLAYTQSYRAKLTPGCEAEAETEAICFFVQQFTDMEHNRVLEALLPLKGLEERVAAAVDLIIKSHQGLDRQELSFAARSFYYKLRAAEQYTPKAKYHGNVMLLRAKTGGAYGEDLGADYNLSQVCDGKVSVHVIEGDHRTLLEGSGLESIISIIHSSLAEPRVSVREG

CN(C)c1ccc(C(=O)N2CCC(c3ccc(-c4cnn(C)c4)cc3)CC2)cc1NC(=O)C1CC1 [Compound #273, N-(2-(dimethylamino)-5-(4-(4-(1-methyl-1H-pyrazol-4-yl)phenyl)piperidine-1-carbonyl)phenyl)cyclopropanecarboxamide]
inhibition at 10 µM [1]: 98%
IC50 [2]: 182 nM
IC50 [3]: > 10 µM
IC50 [4]: 2190 nM
IC50 [5]: 0.269 µM
